{"source": "patent US11304944B2", "about": "“MetAP2 inhibitors and methods of treating obesity” (SynDevRx, Inc., priority 2013, dated 2022)", "system": "DIO C57Bl6 mice", "details": "for Weight Change from day 1: Day 32; for Average BW: IP-GTT day 24; for Blood Glucose 120 / Blood Glucose 15 min / Blood Glucose 30 min / Blood Glucose 60 min / Blood Glucose 90 min / Blood Glucose Fasting: IP-GTT day 24, ± SEM; for CHOLESTEROL / HDL CHOLESTEROL / HDL/LDL ratio / LDL / TRIGLYCERIDE: blood day 32, ± SEM; for Epid. Fat / Fat % BW / Ing. Fat / Liver / RP Fat / Total Fat / avg B.W.: day 32; for Blood glucose: day 32, fasted three hours", "procedure": "C57Bl6 male mice (N=6) fifteen weeks old with an average of weight of 42 g were ad libitum fed TD.06414 a high fat diet composed of 60% Kcal from fat (Harlan diet). […] Animals were weighed every other day. Food consumption was measured weekly. […] Each animal was weighed and a baseline fasted glucose measurement collected. Each animal was given a 1 gram per kilogram dose of dextrose as a 25% solution by intraperitoneal injection.", "note": "Like-named read-outs stand apart in the source and are kept apart here."}
{"substance": "poly[HPMA-co-MA-GFLG-N-(trans-4-aminocyclohexyl)carbamoylfumagillol] [Compound 16]", "values": [{"measurement": "Group BW ± SEM, Day 32", "setting": "0.2 mg/kg q4d sc", "result": "46.5 ± 0.65", "unit": "g"}, {"measurement": "Weekly food consumption Day 1-8", "setting": "0.2 mg/kg q4d sc", "result": 25.8, "unit": "g"}, {"measurement": "Weekly food consumption Day 9-15", "setting": "0.2 mg/kg q4d sc", "result": 22.6, "unit": "g"}, {"measurement": "Weekly food consumption Day 15-22", "setting": "0.2 mg/kg q4d sc", "result": 20.3, "unit": "g"}, {"measurement": "Weekly food consumption Day 22-29", "setting": "0.2 mg/kg q4d sc", "result": 19.7, "unit": "g"}, {"measurement": "Weight Change from day 1", "setting": "0.2 mg/kg q4d sc", "result": "+10.5%"}, {"measurement": "Average BW", "setting": "0.2 mg/kg q4d sc", "result": 43.4, "unit": "g"}, {"measurement": "Blood Glucose 120", "setting": "0.2 mg/kg q4d sc", "result": "241 ± 16.8", "unit": "mg/dL"}, {"measurement": "Blood Glucose 15 min", "setting": "0.2 mg/kg q4d sc", "result": "505 ± 33.9", "unit": "mg/dL"}, {"measurement": "Blood Glucose 30 min", "setting": "0.2 mg/kg q4d sc", "result": "446 ± 20.5", "unit": "mg/dL"}, {"measurement": "Blood Glucose 60 min", "setting": "0.2 mg/kg q4d sc", "result": "456 ± 25.9", "unit": "mg/dL"}, {"measurement": "Blood Glucose 90 min", "setting": "0.2 mg/kg q4d sc", "result": "341 ± 15.5", "unit": "mg/dL"}, {"measurement": "Blood Glucose Fasting", "setting": "0.2 mg/kg q4d sc", "result": "254 ± 5.8", "unit": "mg/dL"}, {"measurement": "CHOLESTEROL", "setting": "0.2 mg/kg q4d sc", "result": "253 ± 8.4", "unit": "mg/dL"}, {"measurement": "HDL CHOLESTEROL", "setting": "0.2 mg/kg q4d sc", "result": "117 ± 2.7", "unit": "mg/dL"}, {"measurement": "HDL/LDL ratio", "setting": "0.2 mg/kg q4d sc", "result": "4.9 ± 0.2"}, {"measurement": "LDL", "setting": "0.2 mg/kg q4d sc", "result": "24 ± 1.1", "unit": "mg/dL"}, {"measurement": "TRIGLYCERIDE", "setting": "0.2 mg/kg q4d sc", "result": "158 ± 10.9", "unit": "mg/dL"}, {"measurement": "Epid. Fat", "setting": "0.2 mg/kg q4d sc", "result": 2.01, "unit": "g"}, {"measurement": "Fat % BW", "setting": "0.2 mg/kg q4d sc", "result": 13.0, "unit": "%"}, {"measurement": "Ing. Fat", "setting": "0.2 mg/kg q4d sc", "result": 2.54, "unit": "g"}, {"measurement": "Liver", "setting": "0.2 mg/kg q4d sc", "result": 2.06, "unit": "g"}, {"measurement": "RP Fat", "setting": "0.2 mg/kg q4d sc", "result": 1.48, "unit": "g"}, {"measurement": "Total Fat", "setting": "0.2 mg/kg q4d sc", "result": 6.02, "unit": "g"}, {"measurement": "avg B.W.", "setting": "0.2 mg/kg q4d sc", "result": 46.50, "unit": "g"}, {"measurement": "Blood glucose", "setting": "0.2 mg/kg q4d sc", "result": 290, "unit": "mg/dL"}, {"measurement": "Group BW ± SEM, Day 32", "setting": "0.6 mg/kg q4d sc", "result": "43.3 ± 0.42", "unit": "g"}, {"measurement": "Weekly food consumption Day 1-8", "setting": "0.6 mg/kg q4d sc", "result": 19.5, "unit": "g"}, {"measurement": "Weekly food consumption Day 9-15", "setting": "0.6 mg/kg q4d sc", "result": 21.5, "unit": "g"}, {"measurement": "Weekly food consumption Day 15-22", "setting": "0.6 mg/kg q4d sc", "result": 20.2, "unit": "g"}, {"measurement": "Weekly food consumption Day 22-29", "setting": "0.6 mg/kg q4d sc", "result": 18.4, "unit": "g"}, {"measurement": "Weight Change from day 1", "setting": "0.6 mg/kg q4d sc", "result": "+2.9%"}, {"measurement": "Average BW", "setting": "0.6 mg/kg q4d sc", "result": 40.9, "unit": "g"}, {"measurement": "Blood Glucose 120", "setting": "0.6 mg/kg q4d sc", "result": "192 ± 12.9", "unit": "mg/dL"}, {"measurement": "Blood Glucose 15 min", "setting": "0.6 mg/kg q4d sc", "result": "442 ± 50.0", "unit": "mg/dL"}, {"measurement": "Blood Glucose 30 min", "setting": "0.6 mg/kg q4d sc", "result": "441 ± 35.54", "unit": "mg/dL"}, {"measurement": "Blood Glucose 60 min", "setting": "0.6 mg/kg q4d sc", "result": "388 ± 56.7", "unit": "mg/dL"}, {"measurement": "Blood Glucose 90 min", "setting": "0.6 mg/kg q4d sc", "result": "302 ± 43.3", "unit": "mg/dL"}, {"measurement": "Blood Glucose Fasting", "setting": "0.6 mg/kg q4d sc", "result": "206 ± 14.9", "unit": "mg/dL"}, {"measurement": "CHOLESTEROL", "setting": "0.6 mg/kg q4d sc", "result": "210 ± 3.7", "unit": "mg/dL"}, {"measurement": "HDL CHOLESTEROL", "setting": "0.6 mg/kg q4d sc", "result": "106 ± 1.2", "unit": "mg/dL"}, {"measurement": "HDL/LDL ratio", "setting": "0.6 mg/kg q4d sc", "result": "5.4 ± 0.1"}, {"measurement": "LDL", "setting": "0.6 mg/kg q4d sc", "result": "20 ± 0.3", "unit": "mg/dL"}, {"measurement": "TRIGLYCERIDE", "setting": "0.6 mg/kg q4d sc", "result": "116 ± 3.1", "unit": "mg/dL"}, {"measurement": "Epid. Fat", "setting": "0.6 mg/kg q4d sc", "result": 2.24, "unit": "g"}, {"measurement": "Fat % BW", "setting": "0.6 mg/kg q4d sc", "result": 13.9, "unit": "%"}, {"measurement": "Ing. Fat", "setting": "0.6 mg/kg q4d sc", "result": 2.51, "unit": "g"}, {"measurement": "Liver", "setting": "0.6 mg/kg q4d sc", "result": 1.75, "unit": "g"}, {"measurement": "RP Fat", "setting": "0.6 mg/kg q4d sc", "result": 1.26, "unit": "g"}, {"measurement": "Total Fat", "setting": "0.6 mg/kg q4d sc", "result": 6.01, "unit": "g"}, {"measurement": "avg B.W.", "setting": "0.6 mg/kg q4d sc", "result": 43.32, "unit": "g"}, {"measurement": "Blood glucose", "setting": "0.6 mg/kg q4d sc", "result": 265, "unit": "mg/dL"}, {"measurement": "weekly food consumption, % of vehicle", "setting": "2 mg/kg q4d, day 9-29", "result": 90, "unit": "%"}, {"measurement": "Weekly food consumption Day 1-8", "setting": "2 mg/kg q4d sc", "result": 14.3, "unit": "g"}, {"measurement": "Weekly food consumption Day 9-15", "setting": "2 mg/kg q4d sc", "result": 22.2, "unit": "g"}, {"measurement": "Weekly food consumption Day 15-22", "setting": "2 mg/kg q4d sc", "result": 19.9, "unit": "g"}, {"measurement": "Weekly food consumption Day 22-29", "setting": "2 mg/kg q4d sc", "result": 18.5, "unit": "g"}, {"measurement": "Group BW ± SEM, Day 32", "setting": "2.0 mg/kg q4d sc", "result": "38.8 ± 0.70", "unit": "g"}, {"measurement": "Weight Change from day 1", "setting": "2.0 mg/kg q4d sc", "result": "−7.4", "unit": "%"}, {"measurement": "Average BW", "setting": "2.0 mg/kg q4d sc", "result": 36.8, "unit": "g"}]}
